Columns and labels:
[1] = tested on: Dex-treated C2C12 myotubes; assay: Dex-induced myotube atrophy, myosin heavy chain immunostaining, myotube diameter; format: cell-based, mouse; settings: 10 μM Dex 24 h
Protocol: C2C12 murine skeletal muscle myoblasts were obtained from Koram Biotech (Republic of Korea). The cells were maintained in DMEM growth medium supplemented with 10% FBS, 1% penicillin, and streptomycin. When myoblasts proliferated to approximately 90%, they were differentiated into muscle fibers by treating them with DMEM differentiation medium supplemented with 2% HS, 1% penicillin, and streptomycin for 96 hours. Differentiated muscle fibers were treated with 10 μM Dex for 24 hours to induce sarcopenia. To evaluate the degree of differentiation of muscle cells, differentiating myoblasts were treated with the corresponding compound in differentiation medium for 24 or 48 hours.
Muscle fibers were stained using immunochemical staining using myosin heavy chain antibody. Specifically, the muscle fibers were rinsed three times with PBS and then fixed with a 3.7% formaldehyde solution. After rinsing with PBS, a transparency process was performed with 0.2% TritonX-100 solution, and additional rinsing was performed with PBS. They were blocked with 1% bovine serum albumin solution (1% BSA in PBS-T) and incubated with primary antibody overnight at 4° C. After washing with PBS, the secondary antibody was treated for 1 hour. Afterwards, the myotubes were counterstained with 1 μM DAPI in PBS. Fluorescence images of stained myotubes in five different areas were obtained using a DMI 3000 B microscope (Leica, Germany) and analyzed using ImageJ 1.52 software (National Institutes of Health, Bethesda, MD, USA). Myotubes were classified as myosin heavy chain positive cells containing four or more nuclei, and the diameter of muscle fibers containing four or more nuclei was measured.

FoxO3a = assay: Western blot of FoxO3a phosphorylation and Atrogin-1 in Dex-treated myotubes; format: cell-based, mouse
Protocol: C2C12 murine skeletal muscle myoblasts were obtained from Koram Biotech (Republic of Korea). The cells were maintained in DMEM growth medium supplemented with 10% FBS, 1% penicillin, and streptomycin. When myoblasts proliferated to approximately 90%, they were differentiated into muscle fibers by treating them with DMEM differentiation medium supplemented with 2% HS, 1% penicillin, and streptomycin for 96 hours. Differentiated muscle fibers were treated with 10 μM Dex for 24 hours to induce sarcopenia. To evaluate the degree of differentiation of muscle cells, differentiating myoblasts were treated with the corresponding compound in differentiation medium for 24 or 48 hours. The concentration of intracellular protein was measured using the Bradford assay (Bio-Rad, USA, CA), and electrophoresis was performed by loading on 10% and 12% polyacrylamide gels. Afterwards, the separated proteins were transferred to a PVDF membrane, and the primary antibody used was diluted 1:1000 in TBS-T containing 5% skim milk and incubated overnight at 4° C. Secondary antibodies were diluted 1:2000 and incubated for 35 minutes at room temperature (RT). Band intensity was measured using ImageJ 1.52 software (National Institutes of Health, USA), and intracellular protein was normalized to α-tubulin.

[2] = tested on: Dex-treated C57BL/6J mice; assay: Dexamethasone-induced sarcopenia mouse model; format: in vivo
Protocol: For quantitative real-time PCR, transcript levels of genes of interest were analyzed using the StepOnePlus real-time PCR system (Applied Biosystems, UK). Total RNA was reverse transcribed to prepare cDNA using AccuPower® RT PreMix (Bioneer Corporation). The obtained cDNA was subjected to real-time PCR according to the manufacturer's instructions with the following changes. PCR was performed in triplicate in a total volume of 20 μL 2× Power SYBR Green PCR Master Mix (Enzynomics, Republic of Korea) containing 200 nM (final concentration) of each specific primer and 1 μL of cDNA synthesized from 1 μg of total RNA. PCR amplification consisted of incubating the mixture at 95° C. for 10 minutes, followed by 40 cycles of denaturation, annealing, and extension. Denaturation was performed at 95° C. for 15 s, annealing was performed at 60° C. for 1 min, and extension was performed at 72° C. for 20 s with fluorescence detection at 72° C. after each cycle. After the final cycle, melting point analysis of all samples was performed within the range of 60 to 95° C. using continuous fluorescence detection. Specific cDNA samples were included in each run and used as reference material for comparison between runs. The expression level of GAPDH was used to calculate and normalize the expression levels of all other genes. Results were expressed as relative expression levels for each gene. The synthesized cDNA was amplified by quantitative real-time PCR (qRT-PCR) or standard PCR.
An LTB4 ELISA kit was purchased from MyBioSource (CA, USA). The concentrations of LTB4 in skeletal muscles and cell lysates were measured by the enzyme-linked […] method according to the manufacturer's instructions. Samples (100 μL) were maintained at room temperature (RT) for 1 hour in 96 wells with polyclonal LTB4 antibody. Afterwards, an enzymatic reaction was performed to stop the process, and the absorbance was measured at 405 nm.
8. Dexamethasone-Induced Sarcopenia Mouse Model 12-week-old male C57BL/6J mice were divided into 3 groups of 5 each and treated with drugs as follows: 1) PBS with 5% DMSO and 5% Tween 80 (Vehicle group); 2) 15 mg/kg of Dexamethasone (at a concentration of 15 mg/kg, in PBS containing 5% DMSO and 5% Tween 80) (Dexamethasone group); and 3) 10 mg/kg of malotilate (at a concentration of 10 mg/kg, in PBS containing 15 mg/kg Dexamethasone, 5% DMSO, and 5% Tween 80) (Malotilate group). Those were injected intraperitoneally (solution volume=200 μL) for 2 weeks. Afterwards, the muscle function and conditions of the mice were analyzed.
Grip strength was measured with the BIO-GS3 grip strength test meter (Bioseb, FL, USA). Grip strength was measured by placing the mouse on a grid and gently pulling it back with all four paws until the mouse fell off the grid. The trials were conducted with a time interval of 30 seconds, and the largest value among the three trials was selected as the representative muscle strength.
Muscle fatigue was measured from two different models using Rotarod (Ugo Basile, Italy). One is a constant speed model that measures how long movement can be continued on a cylinder rotating at a constant speed, and the other model is an acceleration model that measures how fast the mouse can continue movement when the speed of the cylinder increases at regular intervals. Mice were trained to adapt from 5 rpm to 15 rpm one day before measurement in the above two models.
Before sacrifice, mice were anesthetized by intraperitoneally administering 22 mg/kg Ketamine (Yuhan, Republic of Korea) and 10 mg/kg xylazine (Bayer, Republic of Korea) by IP injection, and then samples were collected. Quadriceps, gastrocnemius, tibialis anterior and soleus muscles were sampled and their weights were measured. The muscles sampled for immunohistostaining were cultured overnight at 4° C. with 4% paraformaldehyde, fixed, embedded in paraffin solution, and stored at −80° C. […]

[3] = Dex-treated mice, 10 mg/kg intraperitoneally, 2 weeks
[4] = Dex-treated mice, quadriceps, mRNA

Structure (SMILES): CC(C)OC(=O)C(C(=O)OC(C)C)=C1SC=CS1 [malotilate, Malotilate]
- diameter of muscle fibers (C2C12 myotubes) ([1]; zileuton 10 µM, wedelolactone 20 μM (FIGS. 2, 3)): recovered
- myotube atrophy in Dex-treated myotubes ([1]; C2C12 myotubes): inhibited the effect of Dex on myotube atrophy
- Atrogin-1 expression (Western blot) (FoxO3a): decrease
- FoxO3a phosphorylation levels (FoxO3a; Western blot): increased
- grip strength [2, 3]: significantly increased
- latency to fall, rotarod [2, 3]: significantly increased
- maximum velocity, rotarod [2, 3]: significantly increased
- quadriceps muscle mass [2, 3]: increased
- soleus muscle mass [2, 3]: increased
- LTB4 level in muscle (ELISA) ([2]; Dex-treated mice, quadriceps): lowered
- average muscle fiber cross sectional area (CSA) ([2]; Dex-treated mice, quadriceps): increased
- proportion of fibers with larger CSA ([2]; Dex-treated mice, quadriceps): increased
- MuRF-1 expression in muscle [2, 4]: reduced
- atrogin-1 expression in muscle [2, 4]: reduced
- skeletal muscle atrophy ([2]; animal model of sarcopenia due to Dex treatment): inhibited
